Experimental data from patent US9371336B2, “Compounds for treating spinal muscular atrophy” (PTC Therapeutics Inc., priority 2012, dated 2016).

Tests used:
[1] = test system: gems (Smn-dependent nuclear speckles) in SMA patient fibroblast cells; test: Gems count (Smn-dependent nuclear speckle count) assay; format: cell-based, human; details: SMA Type 1 patient cells, 48 hour, fluorescence microscopy (FIG. 7)
Excerpt: The level of Smn protein directly correlates with the amount of nuclear foci, also known as gems, produced upon staining the cell with a fluorescently labeled anti-Smn antibody (Liu and Dreyfuss, EMBO J., 1996, 15:3555). Gems are multi-protein complexes whose formation is nucleated by the Smn protein and the gems count assay is used to evaluate the level of Smn protein in the cell. As described herein, the gems count assay is used to quantify the level of Smn protein in SMA patient fibroblast cells treated with a test compound.
Cells are thawed and incubated in DMEM-10% FBS for 72 hours, then trypsinized, counted and resuspended to 100,000 cells/mL in DMEM-10% FBS. The cell suspension (2 mL) is plated in a 6-well cell culture plate with a sterile cover slip and incubated for 3 to 5 hours. Test compounds are serially diluted 3.16-fold in 100% DMSO to generate a 7-point dilution curve. […]
Cell culture medium is aspirated from the wells containing cover slips and gently washed three times with cold PBS. […] The number of gems is counted per ≧150 nuclei and % activation is calculated using DMSO and 10 nM bortezomib as controls. For each test compound, the cells are examined at all wavelengths to identify test compounds with inherent fluorescence.

Smn protein [2] = test: Smn protein assay in tissues of adult C/C-allele SMA mice (HTRF); format: in vivo, mouse; details: 50 mg/kg BID for 10 days, relative to vehicle group, p<0.001 by ANOVA, n=10 (FIG. 8)
Experimental: (§1) The Smn HTRF protein assay is used to quantify the level of Smn protein in mouse tissues.
(§2) The tissue samples in Safe-Lock tubes are weighed and the volume of RIPA buffer containing the protease inhibitor cocktail is added based on the weight to volume ratios for each type of tissue: Brain (50 mg/mL), Muscle (50 mg/mL) and Spinal Cord (25 mg/mL).
(§3) Tissues are homogenized using the TissueLyzer by bead milling. 5 mm stainless steel beads are added to the sample and shaken vigorously for 5 minutes at 30 Hz in the TissueLyzer. The samples are then centrifuged for 20 minutes at 14,000×g in a microcentrifuge and the homogenates transferred to the PCR plate. The homogenates are diluted in RIPA buffer to approximately 1 mg/mL for HTRF and approximately 0.5 mg/mL for total protein measurement using the BCA protein assay. For the SMN HTRF assay, 35 μL of the tissue homogenate is transferred to a 384-well plate containing 5 μL of the antibody solution (1:100 dilution of each of the anti-SMNd2 and anti-SMN Kryptate in reconstitution buffer). […] Fluorescence for each well of the plate at 665 nm and 620 nm is measured on an EnVision multilabel plate reader (Perkin-Elmer). The total protein in the tissue homogenate is measured using the BCA assay according to the manufacturer's protocol.
(§4) The normalized fluorescence signal is calculated for each sample, Blank and vehicle control well by dividing the signal at 665 nm by the signal at 620 nm. Normalizing the signal accounts for possible fluorescence quenching due to the matrix effect of the tissue homogenate. The ΔF value (a measurement of Smn protein abundance as a percent value) for each tissue sample well is calculated by subtracting the normalized average fluorescence for the Blank control wells from the normalized fluorescence for each tissue sample well, then dividing this difference by the normalized average fluorescence for the Blank control wells and multiplying the resulting value by 100. The ΔF value for each tissue sample well is divided by the total protein quantity (determined using the BCA assay) for that tissue sample. […]

Smn protein [3] = test: Smn protein in tissues of neonatal Δ7 SMA mice (HTRF); format: in vivo, mouse; details: neonatal SMA Δ7 homozygous knockout mice
Experimental: as §1, §2, §3, §4

SMILES | gems (nuclear speckle count) relative to DMSO [1] | total protein-normalized Smn level, brain (Smn protein [2]) | total protein-normalized Smn level, muscle (Smn protein [2]) | total protein-normalized Smn level, spinal cord (Smn protein [2]) | total protein normalized Smn level, brain (Smn protein [3]; QD IP for 7 days (PND 3 to PND 9) (FIG. 9a)) | total protein normalized Smn level, spinal cord (Smn protein [3]; QD IP for 7 days (PND 3 to PND 9) (FIG. 9b)) | total protein normalized Smn level, muscle (Smn protein [3]; QD IP for 7 days (PND 3 to PND 9) (FIG. 9c))
CN1CCN(c2ccc3cc(-c4nc5c(Cl)cccc5s4)c(=O)oc3n2)CC1 [Cpd 5, 3-(4-chloro-1,3-benzothiazol-2-yl)-7-(4-methylpiperazin-1-yl)-2H-pyrano[2,3-b]pyridin-2-one] | progressively more gems | increased | increased | increased | – | – | –
Cc1ccc2nc(-c3cc4ccc(N5CCN(C)CC5)nc4oc3=O)cn2c1 [Cpd 27, 3-(6-methylimidazo[1,2-a]pyridin-2-yl)-7-(4-methylpiperazin-1-yl)-2H-pyrano[2,3-b]pyridin-2-one] | – | – | – | – | dose dependently increased | dose dependently increased | dose dependently increased
